Results on 5 compounds are retold here after patent US10053476B2, “Phosphohistidine and phosphotyrosine analogues” (UNIVERSITY OF SHEFFIELD, priority 2013, dated 2018).

Molecules are shown by their SMILES.

Series [1] deals with polyclonal sera raised against 4-phosphopyrazol-1-yl alanine. Description: Dot blot of BSA-glutaraldehyde conjugated analogues with affinity depleted rabbit and rat sera. The following applies: BSA-glutaraldehyde conjugated analogue; rabbit and rat sera affinity depleted with histidine-KLH. The series is classed as binding. As to the method:
Solutions of the BSA-amino acid conjugates of histidine, tele-phosphohistidine, and the analogues, were first diluted 1000 fold. These solutions as well as the commercially available solutions of BSA conjugated to phosphoserine, phosphothreonine, and phosphotyrosine were spotted (2 μL) onto a PVDF membrane. Once the spots were dry, the membrane was rinsed with methanol before being blocked in 5% non-fat dry milk in 10 mM Tris-HCl pH 8.0, 17 mM NaCl (TBS), Tween (0.05%) (5% NFDM/TBST) for 1 hour and then incubated with the rat sera raised against the analogue of interest at 1/1000 dilution in 5% NFDM/TBST overnight at 4° C. The membrane was then washed using TBS-Tween (0.05%) 3 times for 15 minutes, before being incubated with a 1/2000 fold dilution of goat anti-rat IgG-HRP conjugate in 5% NFDM/TBST for 60 minutes at room temperature. Membranes were then washed 3 times for 15 minutes using TBS-Tween (0.05%) and then treated with SuperSignal West Dura Chemiluminescent Substrate for 3 minutes. […]
In addition, further antibodies against 4-phosphopyrazol-1-yl alanine were raised as described in sections 2.1.1 to 2.1.4 above, and dot blot analysis conducted as described in section 2.5. […] The data establishes that 4-phosphopyrazol-1-yl alanine amide and 4-phosphothiazol-1-yl alanine amide are detected by the polyclonal sera raised against 4-phosphopyrazol-1-yl alanine.

In the case of `C[C@H](N[SH]1C=NC(P(=O)(O)O)=C1)C(N)=O` (some centres unmarked) [4-phosphothiazol-1-yl alanine amide], the “detection by polyclonal sera raised against 4-phosphopyrazol-1-yl alanine (dot blot)” value in series [1] is reported as “detected”. As a reminder, the melting point is the temperature, or range, at which the solid turns liquid. Take `N[C@@H](Cc1ccc(P(=O)(O)O)cn1)C(=O)O` [Compound 6]: the melting point is 270 °C. In turn, `N[C@@H](Cn1cc(P(=O)(O)O)cn1)C(=O)O` [Compound 12] gave a melting point of 200 °C.

On to `N[C@@H](Cc1cc(P(=O)(O)O)cs1)C(=O)O` [Compound 17], for which the melting point was 260 °C.

For `N[C@@H](Cc1ncc(P(=O)(O)O)s1)C(=O)O` [Compound 20, (S)-2-Amino-3-(5-phosphoryl-1,3-thiazol-2-yl)propanoic acid], the melting point is 196 to 199 °C (dec.).
